Measurements as given in patent publication US8333987B2 (priority 2008, dated 2012).
Read-outs that look alike come from different tables or passages of the source.

Columns and labels:
[1] = organic solvents administered parenterally; cited from earlier work
[2] = system: human peripheral neutrophils; conditions: FIG. 2
Description: (§1) For these studies, a standard Neuroprobe chemotaxis system (Gaithersburg, Md.) and human peripheral neutrophils as indicator cells were used.

[3] = system: Nourin; test: Neutrophil chemotaxis induced by Nourin; type: cell-based; conditions: data not provided in graphical form
[4] = system: human peripheral neutrophils; conditions: FIG. 3
Description: as §1

[5] = Water solubility of cyclocreatine; type: physicochemical; conditions: physiologically relevant zwitterion salt
Description: Therefore, sufficient drug is available in the gut lumen due to good solubility, but an absorptive transporter will be necessary to overcome the poor permeability characteristics of this compound. For effective therapy, it is necessary to deliver cyclocreatine effectively in sufficient quantities into the systemic blood stream. […] Moreover, the in vivo fate of a drug given by a particular administration route is determined by both the physicochemical properties of drug and the anatomical and physiological characteristics of the body. Most conventional drugs, once reaching the blood circulation, distribute freely throughout the body and show relatively even tissue distribution due to their low molecular weight.

[6] = system: Nourin; test: Chemotactic activity of Nourin in supernatants of H1N1 (PR8) infected MDCK cells; type: cell-based; conditions: 5×10^−6 M Nourexin-4, all time points 1-24 hours, FIG. 5
[7] = system: Nourin; test: Chemotactic activity in serum of H1N1 (WSN) influenza infected mice, human PMNs as indicator cells; type: cell-based, mouse; conditions: 5×10^−6 M Nourexin-4; serum diluted 1/7, 6 hours post H1N1 (WSN) infection; FIG. 6

Compound: CC(O)CO (stereo not shown) [propylene glycol]
- LD50 [1]: 5.7%

Compound: CCO [ethanol]
- LD50 [1]: 21%

Compound: C[S+](C)[O-] [DMSO, dimethylsulfoxide]
- LD50 [1]: 5.1%

Compound: formyl-Methionine-Leucine-Phenylalanine [f-MLP]
- neutrophil chemotactic activity induced in vitro [2]: strong neutrophil chemotactic activity

Compound: t-Boc-FLFLF [Nourexin-1]
- inhibition of neutrophil chemotaxis induced by Nourin [3]: significantly inhibited

Compound: phenol-soluble modulin 3a peptide [PSM3a, reference compound]
- neutrophil chemotactic activity induced in vitro [4]: strong neutrophil chemotactic activity

Compound: NC1=NCCN1CC(=O)O [cyclocreatine]
- water solubility [5]: relatively highly water-soluble

Compound: C/C=C/C[C@@H](C)[C@@H](O)[C@H]1C(=O)N[C@@H](CC)C(=O)N(C)CC(=O)N(C)[C@@H](CC(C)C)C(=O)N[C@@H](C(C)C)C(=O)N(C)[C@@H](CC(C)C)C(=O)N[C@@H](C)C(=O)N[C@H](C)C(=O)N(C)[C@@H](CC(C)C)C(=O)N(C)[C@@H](CC(C)C)C(=O)N(C)[C@H](C(C)C)C(=O)N1C [Nourexin-4, Cyclosporine H]
- inhibition of neutrophil chemotaxis induced by Nourin [3]: significantly inhibited
- inhibition of neutrophil chemotaxis induced by S. aureus-derived PSM3a ([4]; Nourexin-4 at 5×10^−4 M): completely blocked
- inhibition of neutrophil chemotaxis induced by S. aureus-derived PSM3a ([4]; Nourexin-4 at 5×10^−5 M): partially blocked
- inhibition of chemotactic activity of H1N1 infected MDCK supernatant ([6]; 1/10 diluted supernatant): dramatic loss of chemotactic activity
- inhibition of chemotactic activity of H1N1 infected MDCK supernatant ([6]; undiluted supernatant): dramatic loss of chemotactic activity
- inhibition of virus induced LCF activity in mouse serum [7]: majority of this virus induced LCF activity is clearly inhibited
